In patent publication US10927104B2, “Ether compounds and uses thereof” (BioTheryX, Inc., priority 2017, dated 2021):

Columns and labels:
Type in all cases: cell-based
[1] = tested on: IL-2; assay: Anti-CD3-induced IL-2 secretion in PBMCs (Mesoscale); conditions: Homo sapiens, PBMC, anti-CD3 stimulated PBMCs, 24 hr, vs DMSO control, read-out: IL-2 Fold Change; for fold induction at 0.1 µM: compound at 0.1 μM; for fold induction at 1 µM: compound at 1 μM; for fold induction at 10 µM: compound 10 μM
Experimental: FIG. 4 represents Anti-CD3-induced IL-2 secretion in PBMCs. 1 μg/mL anti-CD3 (OKT-3) antibody in PBS coated onto 96-well plates overnight at 4° C. Approximately, 550,000 PBMCs were added to each well, followed by addition of DMSO only (control) or Compound 1. Induction was measured after 24 hrs as fold difference from the DMSO stimulated control.
(§1) Frozen primary blood mononuclear cells (PBMCs) were purchased from AllCells. Cells were quick thawed, washed once with RPMI-1640/10% FBS.
For the IL-2 analysis, 96 well plates were precoated with 1 μg/mL anti-human CD3 antibody (OKT3, eBioscience Inc.). After washing with PBS, Compound 1 was added (50 μL/well) followed by PBMCs diluted at 3-4 million cells/mL (150 μL/well). Plates were incubated for 24 hr and the supernatants collected for Mesoscale IL-2 analysis.
(§2) Compound activity was measured as fold difference from the DMSO control. IL-1β activity is shown in FIG. 1; IL-6 activity is shown in FIG. 2; TNFα activity is shown in FIG. 3; and IL-2 activity is shown in FIG. 4. Additional data for compounds (shown as percent inhibition) at 10 μM is shown in Table 1; at 1 μM in Table 2; and at 0.1 μM in Table 3.

[2] = tested on: IL-6; assay: PBMC assay, LPS-induced IL-6 (Meso Scale); conditions: Homo sapiens, PBMCs, 100 ng/mL LPS 18-24 hrs; for inhibition at 0.1 µM: compound at 0.1 μM; for inhibition at 1 µM: compound at 1 μM; for inhibition at 10 µM: compound at 10 μM
Experimental: (§3) FIG. 2 represents the activity against IL-6 in peripheral blood mononuclear cells (PBMCs), plated in 96 well plates and pretreated with compound for 1 hour and then induced with 100 ng/mL LPS for 18-24 hrs. Cytokines were measured according to MesoScale protocol. Negative control wells were treated with DMSO. Compound activity was measured as a percentage of LPS-induced activity.
as §1
(§4) 1% Penicillin/1% Streptomycin and plated in 96 well plates at 200,000 cells per well. Cells were pretreated with DMSO only, or Compound 1 for 1 hour and then induced with 100 ng/mL lipopolysaccharide (LPS) for 18-24 hrs. The supernatant was analyzed for IL-1 beta, IL-6, and TNFα, using Meso Scale assay according to manufacturer's protocol. The negative control wells were treated with DMSO.
as §2

[3] = tested on: IL-1β; assay: PBMC assay, LPS-induced IL-1β (Meso Scale); conditions: Homo sapiens, PBMCs, 100 ng/mL LPS 18-24 hrs; for inhibition at 0.1 µM: compound at 0.1 μM; for inhibition at 1 µM: compound at 1 μM; for inhibition at 10 µM: compound at 10 μM
Experimental: as §3, with “FIG. 1” for “FIG. 2”, “against IL-1-beta” for “against IL-6”, “Cytokines in the media” for “Cytokines”, “activity is” for “activity was”
as §1, §4, §2

[4] = tested on: MV-4-11 cells; assay: Cell viability assay (CellTiter-Glo), MV-4-11 proliferation; conditions: Homo sapiens, MV4-11, 72 h, 3 days; for inhibition at 1 µM: compound at 1 μM; for inhibition at 10 µM: compound at 10 μM
Experimental: (§5) Molm-13 and MV-4-11 cells were cultivated in RPMI-1640 (10% FBS/1% pen-strep) and were plated in white walled 96-well plates at 20,000 cells/well.
(§6) Cells were treated with compound at the indicated concentration or DMSO (control) and the cultures were incubated for 3 days at 37° C. and 5% CO2. Following the incubation period, 100 μL of CellTiterGlow (CTG) reagent (CellTiter-Glo® Luminescent Cell Viability Assay, Promega (Madison, Wis.)) was added to each well. Following a 10 min incubation with shaking, luminescence was measured using a Victor Wallac Luminometer.

[5] = tested on: TNFα; assay: PBMC assay, LPS-induced TNFα (Meso Scale); conditions: Homo sapiens, PBMCs, 100 ng/mL LPS 18-24 hrs; for inhibition at 0.1 µM: compound at 0.1 μM; for inhibition at 1 µM: compound at 1 μM; for inhibition at 10 µM: compound at 10 μM
Experimental: as §3, with “FIG. 3” for “FIG. 2”, “against TNFα” for “against IL-6”, “Cytokines in the media” for “Cytokines”, “protocol. The negative” for “protocol. Negative”, “activity is” for “activity was”
as §1, §4, §2

[6] = tested on: Molm-13 cells; assay: Cell viability assay (CellTiter-Glo), Molm-13 proliferation; conditions: Homo sapiens, MOLM-13, 72 h; compound at 1 μM; 3 days
Experimental: as §5, §6

Row | SMILES | fold induction at 0.1 µM [1] | fold induction at 1 µM [1] | inhibition at 0.1 µM [2] | inhibition at 0.1 µM [3] | inhibition at 1 µM [4] | inhibition at 10 µM [4] | inhibition at 0.1 µM [5] | fold induction at 10 µM [1] | inhibition at 1 µM [2] | inhibition at 10 µM [2] | inhibition at 1 µM [3] | inhibition at 10 µM [3] | inhibition at 1 µM [5] | inhibition at 10 µM [5] | inhibition at 1 µM [6]
1 | O=C1CCC[C@H](N2Cc3c(OCc4ccc(CN5CCOCC5)cc4)cc(F)cc3C2=O)C(=O)N1 [Compound 7] | 1 | 1.1 | 55% | 71% | 0% | 0% | 62% | – | – | – | – | – | – | – | –
2 | Cc1cnc(Nc2ccc(OCCCNCC(=O)NCc3ccc(COc4cccc5c4CN([C@H]4CCC(=O)NC4=O)C5=O)cc3)cc2)nc1Nc1cccc(S(=O)(=O)NC(C)(C)C)c1 [Compound 24] | – | 1 | – | – | 44% | 80% | – | 1 | 9% | 1% | 7% | 23% | 10% | 23% | –
3 | Cc1cnc(Nc2ccc(OCCCNC(=O)NCc3ccc(COc4cccc5c4CN([C@H]4CCCC(=O)NC4=O)C5=O)cc3)cc2)nc1Nc1cccc(S(=O)(=O)NC(C)(C)C)c1 [Compound 13] | – | 0.3 | – | – | 0% | 50% | – | 0.1 | 59% | – | 51% | – | 84% | – | 29%
4 | Cc1cnc(Nc2ccc(OCCCNC(=O)NCc3ccc4c(c3OCc3ccc(CN5CCOCC5)cc3)CN([C@H]3CCCC(=O)NC3=O)C4=O)cc2)nc1Nc1cccc(S(=O)(=O)NC(C)(C)C)c1 [Compound 27] | 1.3 | 1.5 | 5% | 50% | 10% | 36% | 60% | – | 4% | – | 62% | – | 72% | – | 37%
5 | O=C1CCC[C@H](N2Cc3cc(OCc4ccc(CN5CCOCC5)cc4)ccc3C2=O)C(=O)N1 [Compound 15] | – | 1.9 | – | – | 38% | 99% | – | 2.1 | 10% | 50% | 59% | 81% | 65% | 87% | –
6 | Cc1cnc(Nc2ccc(OCCCNC(=O)NCc3ccc4c(c3OCc3ccc(CN5CCOCC5)cc3)CN([C@H]3CCC(=O)NC3=O)C4=O)cc2)nc1Nc1cccc(S(=O)(=O)NC(C)(C)C)c1 [Compound 23] | 0.9 | 1.3 | 23% | 35% | 8% | 79% | 48% | – | 32% | – | 79% | – | 88% | – | 30%
7 | N#Cc1ccc2c(c1OCc1ccc(CN3CCOCC3)cc1)CN([C@H]1CCCC(=O)NC1=O)C2=O [Compound 19, 2-[(S)-2,7-Dioxo-3-azepanyl]-4-{[p-(morpholinomethyl)phenyl]methoxy}-1-oxo-5-isoindolinecarbonitrile] | 1.5 | 2.4 | 12% | 22% | 0% | 0% | 41% | – | 43% | – | 65% | – | 73% | – | –
